Assay results from patent publication US20060216336A1, “Transdermal therapeutic system for Parkinson's Disease” (priority 2002, published 2006).

Tests used:
[1] = Multiple dose trial with rotating patch application sites in early-stage Parkinson's disease: rotigotine pharmacokinetics (Example 4); details: human, in vivo; for concentration at […]: 23.5 H
Text: Each day, a fresh patch was placed on a new skin site (abdomen, flank, upper arm, shoulder, thigh, hip) in a rotating order. The silicone transdermal patches were made in accordance with the teachings of U.S. Patent Application Publication No. US 2003/0026830 at paragraphs 38-42, U.S. Patent Application Publication No. US 2003/0027793 at paragraphs 37-41 and U.S. Pat. No. 6,884,434, columns 5-6, Example 2 and comprised the following layers and components:
The trial consisted of an Eligibility Assessment (EA), a 24-day Titration Phase (4.5 to 18.0 mg/day doses; incremental increases of 4.5mg/day every 6 days), a 6-day Maintenance Phase (18.0 mg/day dose), a 6-day De-escalation Phase (13.5/9.0/4.5mg/day decreasing dose every 2 days), and a Safety Follow-Up visit 2 days following the last dose.
The silicone transdermal patches were made in accordance with the teachings of U.S. Patent Application Publication No. US 2003/0026830 at paragraphs 3842 and U.S. Patent Application Publication No. US 2003/0027793 at paragraphs 3741 comprised the following layers and components as disclosed above
The 18.0 mg/day dose used 2×20 cm^2 patches. Initial doses were 4.5 mg/day with weekly increases of 4.5 mg/day to a maximum target dose of 18.0 mg/day.

RLS symptoms = details: administration of rotigotine; cited from earlier work
[2] = rotigotine plasma concentration Geo. Mean
[3] = rotigotine plasma concentration Max
[4] = rotigotine plasma concentration Mean
[5] = rotigotine plasma concentration Median
[6] = rotigotine plasma concentrations, Geo. Mean
[7] = rotigotine plasma concentrations, Mean
[8] = rotigotine plasma concentrations, Median

SMILES: CCCN(CCc1cccs1)[C@H]1CCc2c(O)cccc2C1 [rotigotine, (6S)-6{propyl[2-(2-thienyl)ethyl]amino}-5,6,7,8-tetrahydro-1-naphthalenol]
- concentration at […] ([1]; 18 mg/day, rotigotine plasma concentration Min, Upper Arm, Day 27): 0.129 ng/mL
- concentration at […] ([1]; 18 mg/day, rotigotine plasma concentration Min, Upper Arm, Day 30): 0.347 ng/mL
- concentration at […] ([1]; 18 mg/day, rotigotine plasma concentration Min, Upper Arm, Days 27 & 30 Combined): 0.129 ng/mL
- concentration at […] ([1]; 18 mg/day, rotigotine plasma concentrations, Geo. Mean, Application Site = Abdomen, Day 27): 0.806 ng/mL
- concentration at […] ([1]; 18 mg/day, rotigotine plasma concentrations, Geo. Mean, Application Site = Abdomen, Day 30): 0.545 ng/mL
- concentration at […] ([1]; 18 mg/day, rotigotine plasma concentrations, Geo. Mean, Application Site = Abdomen, Days 27 & 30 Combined): 0.676 ng/mL
- concentration at 7 h ([1]; 18 mg/day, rotigotine plasma concentrations, Geo. Mean, Application Site = Flank, Days 27 & 30 Combined, 7 H): 0.681 ng/mL
- concentration at […] ([1]; 18 mg/day, rotigotine plasma concentrations, Geo. Mean, Application Site = Flank, Days 27 & 30 Combined): 0.81 ng/mL
- concentration at […] ([1]; 18 mg/day, rotigotine plasma concentrations, Mean, Application Site = Abdomen, Day 27): 0.929 ng/mL
- concentration at […] ([1]; 18 mg/day, rotigotine plasma concentrations, Mean, Application Site = Abdomen, Day 30): 0.613 ng/mL
- concentration at […] ([1]; 18 mg/day, rotigotine plasma concentrations, Mean, Application Site = Abdomen, Days 27 & 30 Combined): 0.787 ng/mL
- concentration at […] ([1]; 18 mg/day, rotigotine plasma concentrations, Mean, Application Site = Flank, Days 27 & 30 Combined): 1.1 ng/mL
- concentration at […] ([1]; 18 mg/day, rotigotine plasma concentrations, Median, Application Site = Abdomen, Day 30): 0.415 ng/mL
- concentration at […] ([1]; 18 mg/day, rotigotine plasma concentrations, Median, Application Site = Abdomen, Days 27 & 30 Combined): 0.677 ng/mL
- concentration at […] ([1]; 18 mg/day, rotigotine plasma concentrations, Median, Application Site = Flank, Days 27 & 30 Combined): 0.714 ng/mL
- AUC(0-t) ([1]; AUC 0-t, ss): 23.8 ng·h/mL
- concentration at 27 day ([1]; Average Concentration): 0.882 ng/mL
- concentration at 30 day ([1]; Average Concentration): 0.975 ng/mL
- concentration at 5 h [1, 2]: 0.971 ng/mL
- concentration at 6 h [1, 2]: 0.837 ng/mL
- concentration at 7 h [1, 2]: 0.993 ng/mL
- concentration at 14 h [1, 2]: 1.15 ng/mL
- concentration at 16 h [1, 2]: 1.15 ng/mL
- concentration at 18 h [1, 2]: 1.16 ng/mL
- concentration at 20 h [1, 2]: 1.14 ng/mL
- concentration at 22 h [1, 2]: 0.815 ng/mL
- concentration at 10 h [1, 3]: 1.98 ng/mL
- concentration at 16 h [1, 3]: 2.53 ng/mL
- concentration at 18 h [1, 3]: 3.25 ng/mL
- concentration at 22 h [1, 3]: 1.77 ng/mL
- concentration at 6 h [1, 4]: 0.911 ng/mL
- concentration at 7 h [1, 4]: 1.08 ng/mL
- concentration at 10 h [1, 4]: 1.17 ng/mL
- concentration at 14 h [1, 4]: 1.26 ng/mL
- concentration at 16 h [1, 4]: 1.28 ng/mL
- concentration at 18 h [1, 4]: 1.32 ng/mL
- concentration at 20 h [1, 4]: 1.4 ng/mL
- concentration at 22 h [1, 4]: 0.904 ng/mL
- concentration at 5 h [1, 5]: 0.956 ng/mL
- concentration at 14 h [1, 5]: 1.21 ng/mL
- concentration at 16 h [1, 5]: 1.06 ng/mL
- concentration at 18 h [1, 5]: 1.17 ng/mL
- concentration at 20 h [1, 5]: 1.04 ng/mL
- concentration at 22 h [1, 5]: 0.734 ng/mL
- concentration at 10 h [1, 6]: 0.816 ng/mL
- concentration at 12 h [1, 6]: 0.848 ng/mL
- concentration at 14 h [1, 6]: 0.84 ng/mL
- concentration at 16 h [1, 6]: 1 ng/mL
- concentration at 18 h [1, 6]: 1.01 ng/mL
- concentration at 20 h [1, 6]: 1.02 ng/mL
- concentration at 22 h [1, 6]: 0.91 ng/mL
- concentration at 10 h [1, 7]: 0.909 ng/mL
- concentration at 12 h [1, 7]: 0.911 ng/mL
- concentration at 14 h [1, 7]: 0.931 ng/mL
- concentration at 16 h [1, 7]: 1.07 ng/mL
- concentration at 18 h [1, 7]: 1.06 ng/mL
- concentration at 20 h [1, 7]: 1.08 ng/mL
- concentration at 22 h [1, 7]: 1.01 ng/mL
- concentration at 10 h [1, 8]: 0.766 ng/mL
- concentration at 12 h [1, 8]: 0.763 ng/mL
- concentration at 14 h [1, 8]: 0.816 ng/mL
- concentration at 16 h [1, 8]: 0.904 ng/mL
- concentration at 18 h [1, 8]: 1.08 ng/mL
- concentration at 20 h [1, 8]: 0.962 ng/mL
- concentration at 22 h [1, 8]: 0.804 ng/mL
- effect on RLS symptoms (RLS symptoms): suppression and reduction of RLS symptoms
